Molecules are shown by their SMILES.

The target of this test is T1, human kinase Mps-1 (Homo sapiens, UniProt P33981).
T1 construct: N-terminally GST-tagged human full length recombinant Mps-1 kinase; purchased Invitrogen, Karslruhe, Germany PV4071
T1 sequence (P33981 1-857): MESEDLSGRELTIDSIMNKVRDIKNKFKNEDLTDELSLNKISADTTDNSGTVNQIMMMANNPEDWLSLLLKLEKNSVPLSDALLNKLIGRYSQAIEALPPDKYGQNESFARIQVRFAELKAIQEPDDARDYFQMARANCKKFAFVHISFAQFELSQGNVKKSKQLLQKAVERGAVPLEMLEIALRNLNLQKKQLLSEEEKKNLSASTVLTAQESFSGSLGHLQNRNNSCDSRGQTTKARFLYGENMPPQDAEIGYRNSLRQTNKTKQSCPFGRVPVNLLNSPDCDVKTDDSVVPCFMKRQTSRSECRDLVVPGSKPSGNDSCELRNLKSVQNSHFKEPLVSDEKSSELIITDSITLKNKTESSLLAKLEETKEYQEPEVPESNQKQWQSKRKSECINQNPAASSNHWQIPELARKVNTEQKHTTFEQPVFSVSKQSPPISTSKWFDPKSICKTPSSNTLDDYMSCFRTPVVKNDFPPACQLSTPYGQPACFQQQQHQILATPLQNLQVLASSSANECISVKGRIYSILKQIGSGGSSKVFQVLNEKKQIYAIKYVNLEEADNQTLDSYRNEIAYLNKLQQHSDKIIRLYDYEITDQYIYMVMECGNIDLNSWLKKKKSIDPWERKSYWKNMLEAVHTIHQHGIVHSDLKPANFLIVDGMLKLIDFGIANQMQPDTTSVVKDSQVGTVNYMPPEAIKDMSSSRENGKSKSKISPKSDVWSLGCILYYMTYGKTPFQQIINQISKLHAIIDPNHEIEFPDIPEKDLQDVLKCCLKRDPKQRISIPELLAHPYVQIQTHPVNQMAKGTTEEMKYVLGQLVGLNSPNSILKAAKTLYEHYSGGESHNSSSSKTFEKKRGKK
Description: Mps-1 kinase assay (HTRF). The class given is biochemical. The settings on record: lowATP; mean; read-out: Mps1 lowATP mean IC50. The method in brief:
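HTRF readout: EDTA-stopped reactions incubated 1 h with europium anti-phospho(Ser/Thr) antibody and streptavidin-XLent, emission ratio 665/620 nm after 350 nm excitation. Kinase step: compound pre-bound 15 min to ~1 nM GST-Mps-1, then 60 min at 22 °C with ATP and biotin-peptide substrate; inhibition scaled between no-inhibitor (0%) and no-enzyme (100%) controls.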
In general terms: TR-FRET usually uses a lanthanide donor and a delayed reading to cut background.
One may read the IC50 as the concentration that gives 50% inhibition. As for `N#Cc1ccc2c(c1)nc(NCc1cccs1)c1ncc(-c3ccc(C(=O)NC4CC4)c(Cl)c3)n12` [Example 2-241, 2-chloro-4-{7-cyano-4-[(thiophen-2-ylmethyl)amino]imidazo[1,2-a]quinoxalin-1-yl}-N-cyclopropylbenzamide], the IC50 is 546 nM. For `O=C(NC1CC1)c1ccc(-c2cnc3c(NCCCN4CCCC4=O)nc4cc(F)c(F)cc4n23)cc1` [Example 2-93, N-cyclopropyl-4-(7,8-difluoro-4-{[3-(2-oxopyrrolidin-1-yl)propyl]amino}imidazo[1,2-a]quinoxalin-1-yl)benzamide], the IC50 amounted to 382 nM.

With `CCOc1ccc(-c2cnc3c(NCC(C)C)nc4ccccc4n23)cc1` [Example 1-29, 1-(4-ethoxyphenyl)-N-(2-methylpropyl)imidazo[1,2-a]quinoxalin-4-amine], the IC50 is 4980 nM. On to `CNC(=O)Nc1ccc(-c2cnc3c(NCCCn4ccnc4)nc4cc(F)c(F)cc4n23)cc1` [Example 2-119, 1-[4-(7,8-difluoro-4-{[3-(1H-imidazol-1-yl)propyl]amino}imidazo[1,2-a]quinoxalin-1-yl)phenyl]-3-methylurea], for which the IC50 turned out to be 7020 nM.

In the case of `CCCNC(=O)c1ccc(-c2cnc3c(NCC(C)C)nc4ccccc4n23)cc1` [Example 3-2, 4-{4-[(2-methylpropyl)amino]imidazo[1,2-a]quinoxalin-1-yl}-N-propylbenzamide], the IC50 is 369 nM. For `N#Cc1ccc2c(c1)nc(NCc1ccccn1)c1ncc(-c3ccc(C(=O)NC4CC4)cc3)n12` [Example 2-213, 4-{7-cyano-4-[(pyridin-2-ylmethyl)amino]imidazo[1,2-a]quinoxalin-1-yl}-N-cyclopropylbenzamide], the IC50 was 106 nM. Regarding `CNC(=O)Nc1ccc(-c2cnc3c(NCC4CC4)nc4cc(F)c(F)cc4n23)cc1` [Example 2-120, 1-(4-{4-[(cyclopropylmethyl)amino]-7,8-difluoroimidazo[1,2-a]quinoxalin-1-yl}phenyl)-3-methylurea], the IC50 stood at 5860 nM. With `O=C(NC1CC1)c1ccc(-c2cnc3c(NCc4ccc(F)cc4)nc4ccccc4n23)cc1` [Example 2-15, N-cyclopropyl-4-{4-[(4-fluorobenzyl)amino]imidazo[1,2-a]quinoxalin-1-yl}benzamide], the half-inhibitory concentration (IC50) is 56.3 nM. As to `CNC(=O)Nc1ccc(-c2cnc3c(NCc4cccs4)nc4cc(C#N)ccc4n23)cc1` [Example 2-226, 1-(4-{7-cyano-4-[(thiophen-2-ylmethyl)amino]imidazo[1,2-a]quinoxalin-1-yl}phenyl)-3-methylurea], the concentration for half-maximal inhibition (IC50) was found to be 2820 nM. `CNC(=O)Nc1ccc(-c2cnc3c(NCc4cccs4)nc4cc(C)c(C)cc4n23)cc1` [Example 2-167, 1-(4-{7,8-dimethyl-4-[(thiophen-2-ylmethyl)amino]imidazo[1,2-a]quinoxalin-1-yl}phenyl)-3-methylurea]: the concentration for half-maximal inhibition (IC50) was 469 nM. Take `O=C(NC1CC1)c1ccc(-c2cnc3c(NCCc4cccc(F)c4)nc4ccccc4n23)cc1` [Example 2-22, N-cyclopropyl-4-(4-{[2-(3-fluorophenyl)ethyl]amino}imidazo[1,2-a]quinoxalin-1-yl)benzamide]: the IC50 stood at 312 nM.

As for `CC(C)CNc1nc2ccccc2n2c(-c3ccc(C(=O)NCCCN4CCCC4=O)cc3)cnc12` [Example 3-5, 4-{4-[(2-methylpropyl)amino]imidazo[1,2-a]quinoxalin-1-yl}-N-[3-(2-oxopyrrolidin-1-yl)propyl]benzamide], the half-inhibitory concentration (IC50) is 15300 nM. For the compound `CCN(CC)C(=O)c1ccc(-c2cnc3c(NCC(C)C)nc4ccccc4n23)cc1` [Example 3-3, N,N-diethyl-4-{4-[(2-methylpropyl)amino]imidazo[1,2-a]quinoxalin-1-yl}benzamide], the concentration for half-maximal inhibition (IC50) came out at 19700 nM. For the compound `O=C(NC1CC1)c1ccc(-c2cnc3c(NCCO)nc4cc(F)c(F)cc4n23)cc1` [Example 2-89, N-cyclopropyl-4-{7,8-difluoro-4-[(2-hydroxyethyl)amino]imidazo[1,2-a]quinoxalin-1-yl}benzamide], the 50% inhibitory concentration (IC50) is 286 nM. For the compound `COc1ccccc1CNc1nc2ccccc2n2c(-c3ccc(C(=O)NC4CC4)cc3)cnc12` [Example 2-13, N-cyclopropyl-4-{4-[(2-methoxybenzyl)amino]imidazo[1,2-a]quinoxalin-1-yl}benzamide], the IC50 worked out at 334 nM. `CC(C)CNc1nc2ccccc2n2c(-c3cccs3)cnc12` [Example 1-21, N-(2-methylpropyl)-1-(thiophen-2-yl)imidazo[1,2-a]quinoxalin-4-amine]: the IC50 was determined as 3310 nM. On to `O=C(NC1CC1)c1ccc(-c2cnc3c(NCCCN4CCCC4=O)nc4ccc(F)cc4n23)cc1` [Example 2-44, N-cyclopropyl-4-(8-fluoro-4-{[3-(2-oxopyrrolidin-1-yl)propyl]amino}imidazo[1,2-a]quinoxalin-1-yl)benzamide], for which the IC50 was 325 nM. Consider `CCNc1nc2cc(C)c(C)cc2n2c(-c3ccc(C(=O)NC4CC4)cc3)cnc12` [Example 2-147, N-cyclopropyl-4-[4-(ethylamino)-7,8-dimethylimidazo[1,2-a]quinoxalin-1-yl]benzamide], for which the 50% inhibitory concentration (IC50) stood at 4.5 nM. For `CNC(=O)Nc1ccc(-c2cnc3c(NCC4CC4)nc4cc(C)c(C)cc4n23)cc1` [Example 2-170, 1-(4-{4-[(cyclopropylmethyl)amino]-7,8-dimethylimidazo[1,2-a]quinoxalin-1-yl}phenyl)-3-methylurea], the IC50 was 312 nM. Consider `CC(C)CNc1nc2ccccc2n2c(-c3ccc(C(=O)NCCc4cccnc4)cc3)cnc12` [Example 3-20, 4-{4-[(2-methylpropyl)amino]imidazo[1,2-a]quinoxalin-1-yl}-N-[2-(pyridin-3-yl)ethyl]benzamide], for which the IC50 turned out to be 4480 nM. Regarding `O=C(NC1CC1)c1ccc(-c2cnc3c(NCCCN4CCOCC4)nc4cc(F)c(F)cc4n23)cc1` [Example 2-90, N-cyclopropyl-4-(7,8-difluoro-4-{[3-(morpholin-4-yl)propyl]amino}imidazo[1,2-a]quinoxalin-1-yl)benzamide], the IC50 is 438 nM. Consider `CC(C)CNc1nc2ccccc2n2c(-c3ccc(S(C)(=O)=O)cc3)cnc12` [Example 1-40, N-(2-methylpropyl)-1-[4-(methylsulfonyl)phenyl]imidazo[1,2-a]quinoxalin-4-amine], for which the IC50 was found to be 17400 nM. As to `COCCCNc1nc2cc(F)c(F)cc2n2c(-c3ccc(C(=O)NC4CC4)c(Cl)c3)cnc12` [Example 2-139, 2-chloro-N-cyclopropyl-4-{7,8-difluoro-4-[(3-methoxypropyl)amino]imidazo[1,2-a]quinoxalin-1-yl}benzamide], the IC50 came to 3850 nM. As to `CCCNc1nc2cc(C#N)ccc2n2c(-c3ccc(C(=O)NC4CC4)cc3)cnc12` [Example 2-203, 4-[7-cyano-4-(propylamino)imidazo[1,2-a]quinoxalin-1-yl]-N-cyclopropylbenzamide], the IC50 is 11.1 nM. In the case of `CNC(=O)Nc1ccc(-c2cnc3c(NCCNC(C)=O)nc4ccc(F)cc4n23)cc1` [Example 2-66, N-{2-[(8-fluoro-1-{4-[(methylcarbamoyl)amino]phenyl}imidazo[1,2-a]quinoxalin-4-yl)amino]ethyl}acetamide], the IC50 amounted to 11800 nM. Then `CNC(=O)Nc1ccc(-c2cnc3c(NCCCn4ccnc4)nc4cc(C#N)ccc4n23)cc1` [Example 2-229, 1-[4-(7-cyano-4-{[3-(1H-imidazol-1-yl)propyl]amino}imidazo[1,2-a]quinoxalin-1-yl)phenyl]-3-methylurea], with 4990 nM. Take `NC(=O)CCNc1nc2cc(F)c(F)cc2n2c(-c3ccc(C(=O)NC4CC4)cc3)cnc12` [Example 2-107, 4-{4-[(3-amino-3-oxopropyl)amino]-7,8-difluoroimidazo[1,2-a]quinoxalin-1-yl}-N-cyclopropylbenzamide]: the half-maximal inhibitory concentration (IC50) came out at 233 nM. As to `CC(C)CCNc1nc2cc(F)c(F)cc2n2c(-c3ccc(C(=O)NC4CC4)cc3)cnc12` [Example 2-91, N-cyclopropyl-4-{7,8-difluoro-4-[(3-methylbutyl)amino]imidazo[1,2-a]quinoxalin-1-yl}benzamide], the IC50 turned out to be 55.5 nM.

As for `N#Cc1ccc2c(c1)nc(NCc1cccnc1)c1ncc(-c3ccc(C(=O)NC4CC4)cc3)n12` [Example 2-214, 4-{7-cyano-4-[(pyridin-3-ylmethyl)amino]imidazo[1,2-a]quinoxalin-1-yl}-N-cyclopropylbenzamide], the IC50 came out at 28.8 nM.

For `CC(C)CNc1nc2ccccc2n2c(-c3cc(F)ccc3F)cnc12` [Example 1-41, 1-(2,5-difluorophenyl)-N-(2-methylpropyl)imidazo[1,2-a]quinoxalin-4-amine], the IC50 came out at 10600 nM.

(Values after patent publication US8729082B2, “Substituted imidazoquinoxalines” (Bayer Intellectual Property GmbH, priority 2009, dated 2014).)
